Laboratory results: ChEMBL document CHEMBL1914436, “Synthesis and in vivo evaluation of cyclic diaminopropane BACE-1 inhibitors” (Bioorg Med Chem Lett, 2011)
Blank lines part the entries; values can stand above or below the compound they belong to. Calls of active or inactive are those of the source. No cut-off for these calls is given here.

Key:
Beta-secretase 1 [1] = target: T1, Beta-secretase 1 (Homo sapiens, UniProt P56817); experiment: Inhibition of BACE-1 in human HEK293 cells overexpressing APP 695 swedish mutation assessed as inhibition of amyloid beta (1 to 40) production by immunoprecipitation assay; format: cell-based
Beta-secretase 1 [2] = target: T1, Beta-secretase 1; experiment: Inhibition of BACE-1
[3] = Permeability from apical to basolateral side of human Caco2 cells; format: ADME, cell-based; conditions: Caco-2, read-out: permeability
[4] = Permeability from basolateral to apical side of human Caco2 cells; format: ADME, cell-based; conditions: Caco-2, read-out: permeability
[5] = Efflux ratio of permeability from basolateral to apical side to apical to basolateral side of human Caco2 cells; format: ADME, cell-based; conditions: Caco-2
[6] = Fraction unbound in sc dosed mouse plasma; format: ADME, organism-based
[7] = Fraction unbound in sc dosed rat plasma; format: ADME, organism-based
Plasma [8] = experiment: Total plasma concentration in rat at 3 mg/kg, sc; format: ADME, organism-based; design: dose 3 mg/kg, route subcutaneous; conditions: in vivo
Plasma [9] = experiment: Total plasma concentration in rat at 10 mg/kg, sc; format: ADME, organism-based; design: dose 10 mg/kg, route subcutaneous; conditions: in vivo
Plasma [10] = experiment: Total plasma concentration in rat at 100 mg/kg, sc; format: ADME, organism-based; design: dose 100 mg/kg, route subcutaneous; conditions: in vivo
Rattus norvegicus [11] = experiment: Antialzheimer activity in rat plasma assessed as amyloid beta (1 to 40) level at 3 mg/kg, sc relative to vehicle treated control; format: functional; conditions: route subcutaneous
Rattus norvegicus [12] = experiment: Antialzheimer activity in rat plasma assessed as amyloid beta (1 to 40) level at 10 mg/kg, sc relative to vehicle treated control; format: functional; conditions: route subcutaneous
Rattus norvegicus [13] = experiment: Antialzheimer activity in rat plasma assessed as amyloid beta (1 to 40) level at 100 mg/kg, sc relative to vehicle treated control; format: functional; conditions: route subcutaneous
Rattus norvegicus [14] = experiment: Antialzheimer activity in rat plasma assessed as reduction in amyloid beta (1 to 40) level at 3 mg/kg, sc relative to vehicle treated control; format: functional; design: scale not given: the % may be the effect or the level left; conditions: route subcutaneous
Brain [15] = experiment: Drug level in rat brain at 3 mg/kg, sc; format: ADME, organism-based; design: dose 3 mg/kg, route subcutaneous; conditions: in vivo, read-out: Drug uptake
Brain [16] = experiment: Drug level in rat brain at 10 mg/kg, sc; format: ADME, organism-based; design: dose 10 mg/kg, route subcutaneous; conditions: in vivo, read-out: Drug uptake
Brain [17] = experiment: Drug level in rat brain at 100 mg/kg, sc; format: ADME, organism-based; design: dose 100 mg/kg, route subcutaneous; conditions: in vivo, read-out: Drug uptake
Rattus norvegicus [18] = experiment: Antialzheimer activity in rat brain assessed as amyloid beta (1 to 40) level at 3 mg/kg, sc relative to vehicle treated control; format: functional; conditions: route subcutaneous
Rattus norvegicus [19] = experiment: Antialzheimer activity in rat brain assessed as amyloid beta (1 to 40) level at 10 mg/kg, sc relative to vehicle treated control; format: functional; conditions: route subcutaneous
Rattus norvegicus [20] = experiment: Antialzheimer activity in rat brain assessed as amyloid beta (1 to 40) level at 100 mg/kg, sc relative to vehicle treated control; format: functional; conditions: route subcutaneous
[21] = Ratio of drug level in brain to plasma in rat at 3 mg/kg, sc; format: ADME, organism-based; design: dose 3 mg/kg, route subcutaneous; conditions: brain and plasma, read-out: BPR
[22] = Ratio of drug level in brain to plasma in rat at 10 mg/kg, sc; format: ADME, organism-based; design: dose 10 mg/kg, route subcutaneous; conditions: brain and plasma, read-out: BPR
[23] = Ratio of drug level in brain to plasma in rat at 100 mg/kg, sc; format: ADME, organism-based; design: dose 100 mg/kg, route subcutaneous; conditions: brain and plasma, read-out: BPR
Mus musculus [24] = experiment: Antialzheimer activity in wild type mouse brain assessed as reduction in amyloid beta (1 to 40) level up to 100 mg/kg, sc; format: functional, organism-based; design: dose 100 mg/kg
Mus musculus [25] = experiment: Antialzheimer activity in sc dosed P-gp knockout mouse plasma assessed as reduction in amyloid beta (1 to 40) level after 5 hrs by ELISA; format: functional
Mus musculus [26] = experiment: Antialzheimer activity in sc dosed P-gp knockout mouse brain assessed as reduction in amyloid beta (1 to 40) level after 5 hrs by ELISA; format: functional
Beta-secretase 1 [27] = target: T1, Beta-secretase 1; experiment: Displacement of [3H]BMS-599240 from recombinant human BACE-1
Beta-secretase 1 [28] = target: T1, Beta-secretase 1; experiment: Inhibition of BACE-1 in human HEK293 cells overexpressing APP 695 swedish mutation assessed as inhibition of amyloid beta (1 to 40) production by ELISA method; format: cell-based
Plasma [29] = experiment: Antialzheimer activity in ip dosed rat assessed as reduction in plasma amyloid beta (1 to 40) level measured at 5 hrs post-dose; format: functional
Plasma [30] = experiment: Drug level in rat plasma at 30 mg/kg, ip; format: ADME, organism-based; design: dose 30 mg/kg, route intraperitoneal; conditions: in vivo, read-out: Drug uptake
[31] = Fraction unbound in rat plasma at 30 mg/kg, ip; format: ADME, organism-based; design: dose 30 mg/kg, route intraperitoneal
Rattus norvegicus [32] = experiment: Antialzheimer activity in rat assessed as reduction in brain amyloid beta (1 to 40) level up to 100 mg/kg, ip measured at 5 hrs post-dose; format: functional, organism-based; design: dose 100 mg/kg
[33] = Ratio of drug level in brain to plasma in rat at 100 mg/kg, ip at 5 hrs; format: ADME, organism-based; design: dose 100 mg/kg, route intraperitoneal; conditions: brain and plasma, read-out: BPR
Brain [34] = experiment: Drug level in rat brain at 100 mg/kg, ip; format: ADME, organism-based; design: dose 100 mg/kg, route intraperitoneal; conditions: in vivo, read-out: Drug uptake

T1 sequence (P56817 whole entry): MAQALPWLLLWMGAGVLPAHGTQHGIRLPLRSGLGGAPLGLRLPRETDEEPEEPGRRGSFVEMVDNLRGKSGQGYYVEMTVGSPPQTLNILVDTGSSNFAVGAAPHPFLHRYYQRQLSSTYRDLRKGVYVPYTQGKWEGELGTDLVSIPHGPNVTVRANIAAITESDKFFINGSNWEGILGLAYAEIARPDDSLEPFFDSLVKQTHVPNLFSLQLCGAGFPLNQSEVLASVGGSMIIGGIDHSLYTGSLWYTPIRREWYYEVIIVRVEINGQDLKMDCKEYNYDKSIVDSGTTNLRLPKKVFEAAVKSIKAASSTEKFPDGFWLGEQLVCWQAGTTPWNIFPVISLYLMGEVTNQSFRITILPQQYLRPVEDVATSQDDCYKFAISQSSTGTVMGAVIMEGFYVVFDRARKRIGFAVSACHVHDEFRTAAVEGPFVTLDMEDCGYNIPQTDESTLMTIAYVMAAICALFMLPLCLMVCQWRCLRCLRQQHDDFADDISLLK

- IC50 (Beta-secretase 1 [1]): > 330 nM
Compound: CCCC[C@@H]1CCN([C@@H](C)C(=O)N[C@@H](Cc2cc(F)cc(F)c2)[C@H](O)[C@H]2C[C@@H](S(=O)(=O)CCC)CN2)C1=O

- IC50 (Beta-secretase 1 [2]): 1600 nM
Compound: CCCN(CCC)C(=O)c1cccc(C(=O)N[C@@H](Cc2cc(F)cc(F)c2)[C@H](O)[C@H]2Cc3ccccc3CN2)c1 (stereo in doubt; 15b)

- IC50 (Beta-secretase 1 [2]): 54 nM
- IC50 (Beta-secretase 1 [1]): 110 nM
Compound: CCC(C)[C@@]1(NC(C)=O)CCN([C@@H](CCc2ccccc2)C(=O)N[C@@H](Cc2cc(F)cc(F)c2)[C@H](O)C2Cc3ccccc3CN2)C1=O (stereo partly drawn)

- IC50 (Beta-secretase 1 [2]): 1600 nM
Compound: CCCC[C@H]1CCN([C@@H](C)C(=O)N[C@@H](Cc2cc(F)cc(F)c2)[C@H](O)[C@H]2Cc3ccccc3CN2)C1=O

- IC50 (Beta-secretase 1 [1]): 3 nM
Compound: CCC(C)[C@@]1(NC(C)=O)CCN([C@@H](CCc2ccccc2)C(=O)N[C@@H](Cc2cc(F)cc(F)c2)[C@H](O)[C@H]2C[C@@H](S(=O)(=O)Cc3ccc(F)cc3)CN2)C1=O (stereo partly drawn)

- IC50 (Beta-secretase 1 [2]): 140 nM
Compound: CCC(C)[C@@]1(NC(C)=O)CCN([C@@H](CCc2ccccc2)C(=O)N[C@@H](Cc2cc(F)cc(F)c2)[C@H](O)[C@@H]2Cc3cccc(OC)c3CN2)C1=O (stereo partly drawn)

- IC50 (Beta-secretase 1 [2]): 1200 nM
Compound: CCCCN(C)C(=O)n1cc(C(=O)N[C@@H](Cc2cc(F)cc(F)c2)[C@H](O)[C@H]2Cc3ccccc3CN2)c2cccnc21

- IC50 (Beta-secretase 1 [2]): 870 nM
Compound: CCC(C)[C@@]1(NC(C)=O)CCN([C@@H](CCc2ccccc2)C(=O)N[C@@H](Cc2cc(F)cc(F)c2)[C@H](O)C2Cc3cccc(O)c3CN2)C1=O (stereo partly drawn)

- IC50 (Beta-secretase 1 [2]): 8 nM
- IC50 (Beta-secretase 1 [1]): 10 nM
Compound: CC(=O)N[C@]1(CC(C)C)CCN([C@@H](CCc2ccccc2)C(=O)N[C@@H](Cc2cc(F)cc(F)c2)[C@H](O)C2Cc3ccccc3CN2)C1=O (stereo partly drawn)

- IC50 (Beta-secretase 1 [1]): 45 nM
Compound: CCCS(=O)(=O)[C@@H]1CN[C@@H]([C@@H](O)[C@H](Cc2cc(F)cc(F)c2)NC(=O)[C@H](CCc2ccccc2)N2CC[C@](NC(C)=O)(C(C)CC)C2=O)C1 (stereo partly drawn)

- IC50 (Beta-secretase 1 [1]): 68 nM
Compound: CCCN(CCC)C(=O)c1cc(C(=O)N[C@@H](Cc2cc(F)cc(F)c2)[C@H](O)[C@H]2C[C@@H](S(=O)(=O)CCC)CN2)cc(-c2ncco2)c1

- Papp A→B [3]: < 1.5 ×10⁻⁶ cm/s
- Papp B→A [4]: 5.8 ×10⁻⁶ cm/s
- efflux ratio [5]: > 4
- IC50 (Beta-secretase 1 [1]): 5 nM
- fraction unbound [6]: 0.24
- fraction unbound [7]: 0.3
- concentration (Plasma [8]): 160 nM
- concentration (Plasma [9]): 740 nM
- concentration (Plasma [10]): 5800 nM
- concentration (Brain [15]): 46 nM
- concentration (Brain [16]): 78 nM
- concentration (Brain [17]): 260 nM
- Kp [21]: 0.32
- Kp [22]: 0.11
- Kp [23]: 0.05
Compound: CCCS(=O)(=O)[C@H]1CN[C@@H]([C@@H](O)[C@H](Cc2cc(F)cc(F)c2)NC(=O)[C@H](CCc2ccccc2)N2CC[C@](NC(C)=O)(C(C)CC)C2=O)C1 (stereo partly drawn)
- Activity (Rattus norvegicus [11]): 28%
- Activity (Rattus norvegicus [12]): 10%
- Activity (Rattus norvegicus [13]): 15%
- Activity (Rattus norvegicus [14]): 72%
- Activity (Rattus norvegicus [18]): 85%
- Activity (Rattus norvegicus [19]): 92%
- Activity (Rattus norvegicus [20]): 91%
- Activity (Mus musculus [24]): inactive
- ED50 (Mus musculus [25]): 30 mg/kg
- ED50 (Mus musculus [26]): 50 mg/kg

- IC50 (Beta-secretase 1 [27]): 2 nM
- IC50 (Beta-secretase 1 [28]): 3 nM
- concentration (Plasma [30]): 3700 nM
- fraction unbound [31]: 0.011
- Kp at 5 h [33]: < 0.05
- concentration (Brain [34]): 113 nM
- Papp A→B [3]: 7.5 ×10⁻⁶ cm/s
- Papp B→A [4]: 11.4 ×10⁻⁶ cm/s
- efflux ratio [5]: 1.5
Compound: CCC(C)[C@@]1(NC(C)=O)CCN([C@@H](CCc2ccccc2)C(=O)N[C@@H](Cc2cc(F)cc(F)c2)[C@H](O)CNCc2cccc(OC)c2)C1=O (stereo partly drawn)
- Activity (Plasma [29]): Dose-dependent effect
- ED50 (Plasma [29]): 30 mg/kg
- Activity (Rattus norvegicus [32]): inactive

- IC50 (Beta-secretase 1 [2]): 4 nM
- IC50 (Beta-secretase 1 [1]): 20 nM
Compound: CCC(C)[C@@]1(NC(C)=O)CCN([C@@H](CCc2ccccc2)C(=O)N[C@@H](Cc2cc(F)cc(F)c2)[C@H](O)C2Cc3cccc(OC)c3CN2)C1=O (stereo partly drawn)

- IC50 (Beta-secretase 1 [2]): 600 nM
Compound: CCC(C)[C@@]1(NC(C)=O)CCN([C@@H](CCc2ccccc2)C(=O)N[C@@H](Cc2cc(F)cc(F)c2)[C@H](O)[C@@H]2Cc3ccccc3CN2)C1=O (stereo partly drawn)

- IC50 (Beta-secretase 1 [1]): 12 nM
Compound: CCC(C)[C@@]1(NC(C)=O)CCN([C@@H](CCc2ccccc2)C(=O)N[C@@H](Cc2cc(F)cc(F)c2)[C@H](O)[C@H]2C[C@@H](S(=O)(=O)c3ccccc3)CN2)C1=O (stereo partly drawn)

- IC50 (Beta-secretase 1 [2]): 88 nM
Compound: CC[C@@H](C)[C@H](N)C(=O)N[C@@H](CCc1ccccc1)C(=O)N[C@@H](CC(C)C)[C@@H](O)C[C@@H](C)C(=O)NCCCCc1ccccc1

- IC50 (Beta-secretase 1 [2]): 1100 nM
Compound: CCCN(CCC)C(=O)c1cccc(C(=O)N[C@@H](Cc2cc(F)cc(F)c2)[C@H](O)[C@H]2Cc3ccccc3CN2)c1 (stereo in doubt; 15a)

- IC50 (Beta-secretase 1 [1]): 15 nM
Compound: CCCS[C@H]1CN[C@@H]([C@@H](O)[C@H](Cc2cc(F)cc(F)c2)NC(=O)[C@H](CCc2ccccc2)N2CC[C@](NC(C)=O)(C(C)CC)C2=O)C1 (stereo partly drawn)

- IC50 (Beta-secretase 1 [2]): 1000 nM
Compound: CCCC[C@H]1CCN([C@@H](CCc2ccccc2)C(=O)N[C@@H](Cc2cc(F)cc(F)c2)[C@H](O)[C@H]2Cc3ccccc3CN2)C1=O

- IC50 (Beta-secretase 1 [2]): 17 nM
- IC50 (Beta-secretase 1 [1]): 140 nM
Compound: CCCOc1cccc2c1CNC([C@@H](O)[C@H](Cc1cc(F)cc(F)c1)NC(=O)[C@H](CCc1ccccc1)N1CC[C@](NC(C)=O)(C(C)CC)C1=O)C2 (stereo partly drawn)

- IC50 (Beta-secretase 1 [2]): 141 nM
Compound: CCC(C)[C@@]1(N)CCN([C@@H](CCc2ccccc2)C(=O)N[C@@H](CC(C)C)[C@@H](O)C[C@@H](C)C(=O)NCCCCc2ccccc2)C1=O (stereo partly drawn)

- IC50 (Beta-secretase 1 [27]): 5 nM
- IC50 (Beta-secretase 1 [28]): 11 nM
Compound: CCC(C)[C@@]1(NC(C)=O)CCN([C@@H](CCc2ccccc2)C(=O)N[C@@H](Cc2ccccc2)[C@H](O)CNCc2cccc(OC)c2)C1=O (stereo partly drawn)
